The values below are quoted from earlier work in patent US20190365934A1, “METHODS FOR IN VIVO MONITORING OF DO[…] AND EFFICACY OF TREATMENT AGENTS THEREFOR” (LIKEMINDS, INC., priority 2017, published 2019).

Molecules are shown by their SMILES.

The conditions of this data set: background statement on FDA approved SPECT tracer.

In the case of `COC(=O)[C@H]1[C@@H](c2ccc([123I])cc2)C[C@@H]2CC[C@H]1N2CCCF` [[^123I]-FP-CIT, [^123I]-2β-carbomethoxy-3β-(4-iodophenyl)-N-(3-fluoropropyl) nortropane], the stable post-injection is 4 h.
